Measurements: patent US11873298B2, “Compounds and uses thereof” (JANSSEN PHARMACEUTICA NV, priority 2017, dated 2024)

Experiments:
Type in all cases: cell-based
SCD5 = molecular target: T1, SCD5 (Homo sapiens, UniProt Q86SK9); test: Growth inhibition of humanized yeast strain expressing SCD5 as sole desaturase; conditions: humanized yeast strain expressing SCD5
T1 construct: host or cells: S. cerevisiae ole1Δ strain (W303 pdr1Δ pdr3Δ background), plasmid pRS316 with TDH3 promoter and CYC1 terminator
T1 sequence (Q86SK9 1-330): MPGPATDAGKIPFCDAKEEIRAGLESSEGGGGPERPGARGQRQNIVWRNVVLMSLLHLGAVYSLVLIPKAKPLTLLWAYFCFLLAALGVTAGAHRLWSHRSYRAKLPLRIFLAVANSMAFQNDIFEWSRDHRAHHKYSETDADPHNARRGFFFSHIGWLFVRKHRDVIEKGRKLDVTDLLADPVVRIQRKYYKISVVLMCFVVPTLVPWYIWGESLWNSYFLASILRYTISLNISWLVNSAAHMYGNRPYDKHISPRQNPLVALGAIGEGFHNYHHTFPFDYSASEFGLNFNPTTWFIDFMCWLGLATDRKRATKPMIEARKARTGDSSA
How it was run: (§1)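 Measured by optical density at 600 nm, growth of desaturase-dependent yeast (OLE1 deleted; human SCD1, human SCD5 or yeast Ole1 supplied from plasmid) was scored after 24 h (Ole1) or 40 h (SCD1, SCD5) at 30° C. in galactose media lacking uracil with DMSO-delivered compound.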

SCD1 = molecular target: T2, SCD1 (Homo sapiens, UniProt O00767); test: Growth inhibition of humanized yeast strain expressing SCD1 as sole desaturase; conditions: humanized yeast strain expressing SCD1
T2 construct: host or cells: S. cerevisiae ole1Δ strain (W303 pdr1Δ pdr3Δ background), plasmid pRS316 with TDH3 promoter and CYC1 terminator
T2 sequence (O00767 1-359): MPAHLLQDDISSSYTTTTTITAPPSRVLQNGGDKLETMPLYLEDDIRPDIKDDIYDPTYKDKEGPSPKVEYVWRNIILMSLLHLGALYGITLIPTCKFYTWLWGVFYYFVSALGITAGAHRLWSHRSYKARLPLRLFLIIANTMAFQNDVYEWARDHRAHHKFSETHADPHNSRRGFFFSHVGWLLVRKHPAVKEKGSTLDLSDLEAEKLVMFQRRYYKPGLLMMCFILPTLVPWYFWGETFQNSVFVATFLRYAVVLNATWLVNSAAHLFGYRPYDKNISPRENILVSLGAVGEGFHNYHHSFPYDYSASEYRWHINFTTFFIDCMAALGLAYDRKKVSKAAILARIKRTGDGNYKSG
How it was run: as §1

Ole1 = molecular target: T3, Ole1 (Saccharomyces cerevisiae, UniProt P21147); test: Growth inhibition of yeast strain expressing Ole1 as sole desaturase; conditions: yeast strain expressing Ole1 as sole desaturase
T3 construct: expressed in transfected cells; host or cells: S. cerevisiae ole1Δ strain (W303 pdr1Δ pdr3Δ background), plasmid pRS316 with TDH3 promoter and CYC1 terminator
T3 sequence (P21147 1-510): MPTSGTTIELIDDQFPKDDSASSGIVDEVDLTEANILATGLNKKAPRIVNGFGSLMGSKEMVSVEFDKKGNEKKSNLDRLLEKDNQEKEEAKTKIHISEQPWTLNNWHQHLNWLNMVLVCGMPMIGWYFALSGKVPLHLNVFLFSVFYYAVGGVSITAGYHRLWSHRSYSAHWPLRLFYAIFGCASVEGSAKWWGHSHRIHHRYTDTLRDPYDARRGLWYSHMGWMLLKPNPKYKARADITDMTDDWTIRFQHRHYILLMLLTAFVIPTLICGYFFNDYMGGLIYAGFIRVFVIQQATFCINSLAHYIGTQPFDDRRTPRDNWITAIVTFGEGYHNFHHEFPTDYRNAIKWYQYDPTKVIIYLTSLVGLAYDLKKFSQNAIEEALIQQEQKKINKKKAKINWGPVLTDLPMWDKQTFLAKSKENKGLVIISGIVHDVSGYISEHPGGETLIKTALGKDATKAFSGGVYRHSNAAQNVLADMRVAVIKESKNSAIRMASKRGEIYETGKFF
How it was run: as §1

Structure (SMILES) | IC50 (SCD5) | SCD5 % Max Inhibition (SCD5) | IC50 (SCD1) | SCD1 % Max Inhibition (SCD1) | IC50 (Ole1) | OLE1 % Max Inhibition (Ole1)
Cc1nn(C)c2cc(-c3noc(C4CCN(C(=O)C5CC(=O)N(CC6COC6)C5)CC4)n3)ccc12 (stereo not shown) [Compound 255] | 30 µM | 64.50% | > 45 µM | 72.70% | > 45 µM | 96.25%
Cc1nn(C)c2cc(-c3noc(N4CCC(C(=O)N5CCO[C@H](c6ccccc6)C5)CC4)n3)ccc12 [Compound 211] | > 45 µM | 6.95% | > 45 µM | 39.99% | > 45 µM | 2.65%
O=C(c1ccccc1)N1CCC(c2nc(N3CC4(CCCO4)C3)no2)CC1 [Compound 335] | > 45 µM | 61.2% |  | 54.0% | > 45 µM | 81.5%
O=C(C1CC(=O)N(c2ccccc2)C1)N1CCC(c2nc(-c3ccc4nonc4c3)no2)CC1 (stereo not shown) [Compound 164] | > 45 µM | 73.90% | > 45 µM | 102.20% | > 45 µM | 96.96%
O=C(C1CCN(c2nc(-c3ccccc3)no2)CC1)N1CCOCC1 [Compound 5] | 24.5 µM |  | > 45 µM |  | > 45 µM | 
Cc1nn(C)c2cc(-c3noc(N4CCC(C(=O)N5CCO[C@@H](c6ccccc6)C5)CC4)n3)ccc12 [Compound 210] | > 45 µM | 3.39% | > 45 µM | 30.48% | > 45 µM | 2.27%
CC(C)n1cc(-c2noc(C3CCN(C(=O)C4CC(=O)N(c5cccc(Cl)c5)C4)CC3)n2)cn1 (stereo not shown) [Compound 338] | > 45 µM | 76.3% | > 45 µM | 60.0% | > 45 µM | 85.2%
CC(C)c1ccc(C(=O)N2CCC(c3nc(C(=O)Nc4cnn(C)c4)no3)CC2)cc1 [Compound 285] | > 45 µM | 30.09% |  | 45.62% | > 45 µM | 105.26%
CC1(C)CC(=O)c2c(O)cc(OCC(=O)NCCc3nc(-c4ccccc4)no3)cc2O1 [Compound 487] | 40.2 µM | 70.73% |  | 83.76% | > 45 µM | 103.20%
Cc1nn(C)c2cc(-c3noc(N4CCN(C(=O)c5cc(F)ccc5Cl)CC4)n3)ccc12 [Compound 278] | > 45 µM | 10.55% |  | 32.22% | > 45 µM | 21.08%
Cc1nn(C)c2cc(-c3noc(N4C[C@H]5CN(C(=O)CNC(=O)c6ccccc6)C[C@H]5C4)n3)ccc12 [Compound 207] | > 45 µM | 72.56% | > 45 µM | 86.42% | > 45 µM | 5.39%
N#Cc1cccc(N2CC(C(=O)N3CCC(c4nc(N5CC6(COC6)C5)no4)CC3)CC2=O)c1 (stereo not shown) [Compound 332] | > 45 µM | 31.5% | > 45 µM | 59.7% | > 45 µM | 77.0%
CC(C)(CO)n1ncc2ccc(-c3noc(C4CCN(C(=O)C5CC(=O)N(c6ccccc6)C5)CC4)n3)cc21 (stereo not shown) [Compound 203] | > 45 µM | 80.12% | > 45 µM | 84.83% | > 45 µM | 100.03%
Cc1nn(C)c2cc(-c3nc(C4CCN(C(=O)CNC(=O)c5ccccc5)CC4)no3)ccc12 [Compound 326] | > 45 µM | 26.5% |  | 77.1% | > 45 µM | 7.5%
